Assay results as given in ChEMBL document CHEMBL4507319 (2021).

What was measured:
[1] = molecular target: Tyrosine-protein kinase receptor UFO (Homo sapiens) (UniProt P30530); details: Compound concentration 1000.0 nM
[2] = molecular target: T1, Calcium/calmodulin-dependent protein kinase type IV (Homo sapiens) (UniProt Q16566); details: Compound concentration 1000.0 nM
T1 sequence (whole entry): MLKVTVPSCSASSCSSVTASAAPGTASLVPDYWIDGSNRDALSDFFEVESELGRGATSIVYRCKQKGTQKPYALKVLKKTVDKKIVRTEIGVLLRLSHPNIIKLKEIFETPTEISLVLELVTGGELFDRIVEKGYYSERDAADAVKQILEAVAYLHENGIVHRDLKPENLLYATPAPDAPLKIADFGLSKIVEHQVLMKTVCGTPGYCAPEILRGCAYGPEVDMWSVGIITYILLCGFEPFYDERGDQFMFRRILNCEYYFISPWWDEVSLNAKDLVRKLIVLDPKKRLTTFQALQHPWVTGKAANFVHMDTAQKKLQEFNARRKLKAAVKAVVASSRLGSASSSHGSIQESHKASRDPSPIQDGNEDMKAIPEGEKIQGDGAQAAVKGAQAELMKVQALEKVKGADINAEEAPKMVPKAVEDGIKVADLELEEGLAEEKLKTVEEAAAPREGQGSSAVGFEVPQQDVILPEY

[3] = molecular target: Dual specificity protein kinase CLK2 (Homo sapiens) (UniProt P49760); details: Compound concentration 1000.0 nM
Sequence of Dual specificity protein kinase CLK2 (Homo sapiens) (P49760 whole entry, looked up): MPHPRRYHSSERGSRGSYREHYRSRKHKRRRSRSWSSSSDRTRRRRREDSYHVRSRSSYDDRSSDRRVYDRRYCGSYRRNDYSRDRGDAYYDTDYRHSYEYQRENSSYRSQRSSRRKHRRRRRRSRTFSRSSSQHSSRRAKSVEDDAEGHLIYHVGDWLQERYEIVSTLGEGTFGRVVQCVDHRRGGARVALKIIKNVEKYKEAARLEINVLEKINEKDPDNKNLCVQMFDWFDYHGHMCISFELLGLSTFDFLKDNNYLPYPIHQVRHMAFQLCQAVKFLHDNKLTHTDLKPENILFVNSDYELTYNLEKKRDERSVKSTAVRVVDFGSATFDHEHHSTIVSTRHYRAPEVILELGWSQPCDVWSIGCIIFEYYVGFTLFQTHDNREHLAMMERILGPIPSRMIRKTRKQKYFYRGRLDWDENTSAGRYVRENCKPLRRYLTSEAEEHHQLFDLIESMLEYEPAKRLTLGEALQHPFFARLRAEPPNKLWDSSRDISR

[4] = molecular target: Mitogen-activated protein kinase 4 (Homo sapiens) (UniProt P31152); details: Compound concentration 1000.0 nM
[5] = molecular target: Tyrosine-protein kinase Fer (Homo sapiens) (UniProt P16591); details: Compound concentration 1000.0 nM
[6] = test system: Receptor-type tyrosine-protein kinase FLT3 (Homo sapiens), P36888 [K663Q]; details: Compound concentration 1000.0 nM
[7] = molecular target: Insulin-like growth factor 1 receptor (Homo sapiens) (UniProt P08069); details: Compound concentration 1000.0 nM
Sequence of Insulin-like growth factor 1 receptor (Homo sapiens) (P08069 31-736 limits assumed): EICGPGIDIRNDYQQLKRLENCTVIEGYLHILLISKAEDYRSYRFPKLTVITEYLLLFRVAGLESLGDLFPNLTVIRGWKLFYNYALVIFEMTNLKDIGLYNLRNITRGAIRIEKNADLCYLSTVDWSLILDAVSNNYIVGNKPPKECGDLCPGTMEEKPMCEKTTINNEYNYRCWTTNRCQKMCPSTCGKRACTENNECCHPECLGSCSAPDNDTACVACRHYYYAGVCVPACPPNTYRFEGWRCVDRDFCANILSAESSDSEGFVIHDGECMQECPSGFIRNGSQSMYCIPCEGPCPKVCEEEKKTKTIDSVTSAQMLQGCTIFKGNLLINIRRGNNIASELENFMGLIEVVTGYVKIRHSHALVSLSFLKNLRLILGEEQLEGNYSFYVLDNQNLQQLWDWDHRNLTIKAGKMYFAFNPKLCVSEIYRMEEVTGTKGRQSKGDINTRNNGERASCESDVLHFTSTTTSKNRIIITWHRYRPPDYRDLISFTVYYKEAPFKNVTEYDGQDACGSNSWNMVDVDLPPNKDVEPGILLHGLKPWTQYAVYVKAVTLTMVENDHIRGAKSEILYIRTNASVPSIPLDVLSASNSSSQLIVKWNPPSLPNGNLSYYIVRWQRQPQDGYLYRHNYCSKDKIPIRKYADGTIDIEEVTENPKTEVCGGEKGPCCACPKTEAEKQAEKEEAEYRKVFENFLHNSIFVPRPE
Sequence of Insulin-like growth factor 1 receptor (Homo sapiens) (P08069 741-1367 limits assumed): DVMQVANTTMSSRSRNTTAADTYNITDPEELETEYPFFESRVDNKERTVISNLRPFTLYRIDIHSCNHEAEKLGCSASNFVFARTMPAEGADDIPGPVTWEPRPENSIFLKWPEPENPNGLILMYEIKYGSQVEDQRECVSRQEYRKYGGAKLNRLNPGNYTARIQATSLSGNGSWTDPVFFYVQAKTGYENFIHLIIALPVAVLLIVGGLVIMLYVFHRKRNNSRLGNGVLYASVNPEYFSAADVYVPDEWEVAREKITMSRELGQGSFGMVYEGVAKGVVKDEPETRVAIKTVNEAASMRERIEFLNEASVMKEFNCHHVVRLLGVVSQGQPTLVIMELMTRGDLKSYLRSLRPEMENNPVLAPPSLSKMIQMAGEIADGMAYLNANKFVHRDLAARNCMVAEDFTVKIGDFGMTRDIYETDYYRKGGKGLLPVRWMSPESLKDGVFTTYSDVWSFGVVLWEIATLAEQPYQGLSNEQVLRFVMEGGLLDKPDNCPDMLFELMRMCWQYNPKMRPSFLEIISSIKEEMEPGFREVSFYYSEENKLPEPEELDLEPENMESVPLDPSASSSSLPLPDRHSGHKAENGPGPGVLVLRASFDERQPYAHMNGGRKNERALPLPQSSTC

[8] = molecular target: Mitogen-activated protein kinase 9 (Homo sapiens) (UniProt P45984); details: Compound concentration 1000.0 nM
[9] = molecular target: Serine/threonine-protein kinase LATS2 (Homo sapiens) (UniProt Q9NRM7); details: Compound concentration 1000.0 nM
[10] = molecular target: Mitogen-activated protein kinase kinase kinase 3 (Homo sapiens) (UniProt Q99759); details: Compound concentration 1000.0 nM
Sequence of Mitogen-activated protein kinase kinase kinase 3 (Homo sapiens) (Q99759 whole entry): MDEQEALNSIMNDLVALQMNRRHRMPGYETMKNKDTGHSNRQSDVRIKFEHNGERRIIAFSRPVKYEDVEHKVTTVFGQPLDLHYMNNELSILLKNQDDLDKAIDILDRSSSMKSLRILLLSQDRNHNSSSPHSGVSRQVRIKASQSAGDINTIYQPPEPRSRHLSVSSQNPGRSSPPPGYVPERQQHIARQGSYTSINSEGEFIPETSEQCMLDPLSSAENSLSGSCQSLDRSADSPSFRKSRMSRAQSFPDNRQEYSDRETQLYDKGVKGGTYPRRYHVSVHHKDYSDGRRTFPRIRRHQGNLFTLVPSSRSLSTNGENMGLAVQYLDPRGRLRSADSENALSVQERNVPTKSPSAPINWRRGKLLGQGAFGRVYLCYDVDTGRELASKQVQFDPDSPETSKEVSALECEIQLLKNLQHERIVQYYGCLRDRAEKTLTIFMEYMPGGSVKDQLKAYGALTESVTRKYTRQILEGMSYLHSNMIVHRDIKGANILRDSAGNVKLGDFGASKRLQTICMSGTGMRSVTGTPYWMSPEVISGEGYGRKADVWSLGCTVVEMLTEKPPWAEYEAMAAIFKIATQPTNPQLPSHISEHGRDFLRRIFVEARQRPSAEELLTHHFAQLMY

[11] = molecular target: Dual specificity mitogen-activated protein kinase kinase 3 (Homo sapiens) (UniProt P46734); details: Compound concentration 1000.0 nM
[12] = molecular target: T2, Serine/threonine-protein kinase Nek1 (Homo sapiens) (UniProt Q96PY6); details: Compound concentration 1000.0 nM
T2 sequence (whole entry): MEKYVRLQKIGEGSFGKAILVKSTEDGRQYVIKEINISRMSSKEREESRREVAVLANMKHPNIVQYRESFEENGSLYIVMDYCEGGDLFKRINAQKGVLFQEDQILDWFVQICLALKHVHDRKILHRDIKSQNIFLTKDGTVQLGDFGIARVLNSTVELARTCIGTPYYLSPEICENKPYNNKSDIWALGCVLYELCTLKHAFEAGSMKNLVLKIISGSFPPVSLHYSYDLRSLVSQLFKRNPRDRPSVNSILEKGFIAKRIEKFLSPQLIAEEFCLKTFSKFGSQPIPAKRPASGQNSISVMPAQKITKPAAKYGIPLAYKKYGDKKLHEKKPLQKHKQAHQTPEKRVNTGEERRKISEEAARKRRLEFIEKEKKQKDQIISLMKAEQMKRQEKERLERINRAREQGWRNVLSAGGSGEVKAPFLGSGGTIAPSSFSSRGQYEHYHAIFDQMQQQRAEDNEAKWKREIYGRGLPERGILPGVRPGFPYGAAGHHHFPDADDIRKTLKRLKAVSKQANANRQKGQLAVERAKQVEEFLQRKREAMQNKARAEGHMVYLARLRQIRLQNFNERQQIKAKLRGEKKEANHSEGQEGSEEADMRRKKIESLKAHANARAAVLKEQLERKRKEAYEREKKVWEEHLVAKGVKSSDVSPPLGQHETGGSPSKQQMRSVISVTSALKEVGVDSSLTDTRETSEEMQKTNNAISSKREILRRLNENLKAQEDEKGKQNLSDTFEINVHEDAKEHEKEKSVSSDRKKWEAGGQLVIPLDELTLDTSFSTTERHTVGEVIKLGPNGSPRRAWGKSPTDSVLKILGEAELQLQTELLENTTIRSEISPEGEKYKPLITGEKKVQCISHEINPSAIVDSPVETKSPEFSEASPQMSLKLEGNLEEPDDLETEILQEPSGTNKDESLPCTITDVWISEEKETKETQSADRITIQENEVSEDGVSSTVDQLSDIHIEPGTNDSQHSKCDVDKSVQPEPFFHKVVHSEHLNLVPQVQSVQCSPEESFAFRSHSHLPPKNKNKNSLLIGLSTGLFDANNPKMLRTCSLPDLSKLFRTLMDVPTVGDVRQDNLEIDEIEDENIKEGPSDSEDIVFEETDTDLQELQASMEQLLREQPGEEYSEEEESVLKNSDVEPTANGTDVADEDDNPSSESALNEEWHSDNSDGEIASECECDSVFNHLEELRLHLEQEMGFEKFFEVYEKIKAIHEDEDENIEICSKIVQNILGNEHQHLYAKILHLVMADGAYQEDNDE

[13] = molecular target: Serine/threonine-protein kinase Nek7 (Homo sapiens) (UniProt Q8TDX7); details: Compound concentration 1000.0 nM
Sequence of Serine/threonine-protein kinase Nek7 (Homo sapiens) (Q8TDX7 whole entry, looked up): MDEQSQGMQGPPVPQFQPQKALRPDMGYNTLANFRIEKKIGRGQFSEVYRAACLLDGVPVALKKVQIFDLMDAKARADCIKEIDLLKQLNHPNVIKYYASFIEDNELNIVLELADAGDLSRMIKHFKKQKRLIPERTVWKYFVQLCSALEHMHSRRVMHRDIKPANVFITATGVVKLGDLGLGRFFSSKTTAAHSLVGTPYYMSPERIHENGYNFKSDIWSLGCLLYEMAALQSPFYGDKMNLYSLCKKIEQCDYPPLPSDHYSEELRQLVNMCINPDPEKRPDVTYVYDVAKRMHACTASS

[14] = molecular target: Cyclin-dependent kinase 16 (Homo sapiens) (UniProt Q00536); details: Compound concentration 1000.0 nM
Sequence of Cyclin-dependent kinase 16 (Homo sapiens) (Q00536 whole entry, canonical isoform): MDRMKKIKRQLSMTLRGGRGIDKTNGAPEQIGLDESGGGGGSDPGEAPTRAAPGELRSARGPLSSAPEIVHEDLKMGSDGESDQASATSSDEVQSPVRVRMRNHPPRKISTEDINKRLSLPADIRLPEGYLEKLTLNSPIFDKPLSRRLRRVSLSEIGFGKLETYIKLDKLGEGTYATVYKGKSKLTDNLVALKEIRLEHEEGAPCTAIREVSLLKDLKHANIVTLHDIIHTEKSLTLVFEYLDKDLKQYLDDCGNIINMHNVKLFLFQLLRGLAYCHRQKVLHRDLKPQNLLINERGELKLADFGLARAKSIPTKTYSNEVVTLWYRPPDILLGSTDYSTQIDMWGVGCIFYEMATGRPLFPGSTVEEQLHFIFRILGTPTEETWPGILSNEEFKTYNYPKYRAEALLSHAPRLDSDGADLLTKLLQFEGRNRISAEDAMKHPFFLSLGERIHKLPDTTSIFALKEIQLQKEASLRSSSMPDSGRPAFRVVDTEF

[15] = test system: Phosphatidylinositol 4,5-bisphosphate 3-kinase catalytic subunit alpha isoform (Homo sapiens), P42336 [I800L]; details: Compound concentration 1000.0 nM
[16] = molecular target: Tyrosine-protein kinase Srms (Homo sapiens) (UniProt Q9H3Y6); details: Compound concentration 1000.0 nM
[17] = molecular target: 5-hydroxytryptamine receptor 2A (Homo sapiens) (UniProt P28223); details: Compound concentration 10.0 uM
Sequence of 5-hydroxytryptamine receptor 2A (Homo sapiens) (P28223 whole entry): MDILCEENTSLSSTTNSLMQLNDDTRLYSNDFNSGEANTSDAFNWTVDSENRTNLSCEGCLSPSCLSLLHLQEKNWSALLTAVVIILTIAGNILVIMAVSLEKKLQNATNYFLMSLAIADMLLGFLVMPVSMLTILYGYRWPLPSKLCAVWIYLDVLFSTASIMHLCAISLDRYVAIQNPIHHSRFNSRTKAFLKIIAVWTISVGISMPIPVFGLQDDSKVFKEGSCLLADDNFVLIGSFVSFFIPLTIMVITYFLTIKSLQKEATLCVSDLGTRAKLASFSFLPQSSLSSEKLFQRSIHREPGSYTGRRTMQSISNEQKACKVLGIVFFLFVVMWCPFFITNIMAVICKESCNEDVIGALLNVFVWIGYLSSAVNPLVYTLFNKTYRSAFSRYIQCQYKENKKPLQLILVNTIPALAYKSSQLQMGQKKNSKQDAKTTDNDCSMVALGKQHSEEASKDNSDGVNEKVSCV

[18] = molecular target: 5-hydroxytryptamine receptor 5A (Homo sapiens) (UniProt P47898); details: Compound concentration 10.0 uM
Sequence of 5-hydroxytryptamine receptor 5A (Homo sapiens) (P47898 whole entry): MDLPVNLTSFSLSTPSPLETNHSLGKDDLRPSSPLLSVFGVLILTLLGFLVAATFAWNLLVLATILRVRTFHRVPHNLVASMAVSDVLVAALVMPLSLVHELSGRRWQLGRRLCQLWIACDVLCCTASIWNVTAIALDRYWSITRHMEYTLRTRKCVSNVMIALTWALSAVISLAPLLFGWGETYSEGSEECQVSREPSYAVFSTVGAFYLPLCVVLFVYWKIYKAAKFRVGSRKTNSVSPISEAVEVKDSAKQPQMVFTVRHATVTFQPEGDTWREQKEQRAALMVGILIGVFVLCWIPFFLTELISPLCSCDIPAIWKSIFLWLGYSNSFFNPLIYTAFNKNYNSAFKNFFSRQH

Sequence of Tyrosine-protein kinase receptor UFO (Homo sapiens) (P30530 whole entry): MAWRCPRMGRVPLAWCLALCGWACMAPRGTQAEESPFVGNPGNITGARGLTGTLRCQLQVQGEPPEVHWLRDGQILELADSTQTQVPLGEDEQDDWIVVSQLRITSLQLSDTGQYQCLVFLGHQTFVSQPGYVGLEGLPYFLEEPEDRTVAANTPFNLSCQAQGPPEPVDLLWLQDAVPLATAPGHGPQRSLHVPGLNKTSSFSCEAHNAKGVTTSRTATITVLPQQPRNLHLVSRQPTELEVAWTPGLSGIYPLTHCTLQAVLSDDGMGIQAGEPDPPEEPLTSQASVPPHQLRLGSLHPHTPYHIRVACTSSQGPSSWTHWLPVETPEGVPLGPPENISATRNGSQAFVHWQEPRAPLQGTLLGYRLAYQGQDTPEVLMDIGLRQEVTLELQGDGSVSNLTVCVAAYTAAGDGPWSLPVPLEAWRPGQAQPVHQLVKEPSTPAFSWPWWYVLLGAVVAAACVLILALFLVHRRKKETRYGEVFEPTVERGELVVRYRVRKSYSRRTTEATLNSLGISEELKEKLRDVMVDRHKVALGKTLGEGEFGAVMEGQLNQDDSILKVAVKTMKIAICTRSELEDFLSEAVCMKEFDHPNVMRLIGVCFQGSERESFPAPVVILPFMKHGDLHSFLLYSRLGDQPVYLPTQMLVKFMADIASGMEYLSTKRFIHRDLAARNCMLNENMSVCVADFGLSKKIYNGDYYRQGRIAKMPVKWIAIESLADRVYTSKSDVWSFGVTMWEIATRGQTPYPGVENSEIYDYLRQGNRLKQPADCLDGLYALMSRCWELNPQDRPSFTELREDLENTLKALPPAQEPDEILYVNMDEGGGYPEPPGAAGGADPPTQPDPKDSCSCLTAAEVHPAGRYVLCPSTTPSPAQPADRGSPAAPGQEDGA

| Compound | residual activity [1] [%] | residual activity [2] [%] | residual activity [3] [%] | residual activity [4] [%] | residual activity [5] [%] | residual activity [6] [%] | residual activity [7] [%] | residual activity [8] [%] | residual activity [9] [%] | residual activity [10] [%] | residual activity [11] [%] | residual activity [12] [%] | residual activity [13] [%] | residual activity [14] [%] | residual activity [15] [%] | residual activity [16] [%] | inhibition [17] [%] | inhibition [18] [%] |
| --- | --- | --- | --- | --- | --- | --- | --- | --- | --- | --- | --- | --- | --- | --- | --- | --- | --- | --- |
| CC1=C(C#N)C(c2ccc3c(c2)c(NC(=O)c2ccccc2C)nn3C)C(C#N)=C(C)N1 [BAY-974] | 100 | 70 | 75 | 100 | 88 | 100 | 96 | 73 | 100 | 77 | 91 | 100 | 96 | 93 | 93 | 57 | 8.41 | 0.04 |
| CCc1ccccc1C(=O)Nc1n[nH]c2c(C)c(F)c(C3C(C#N)=C(C)N(C)C(C)=C3C#N)cc12 [BAY-3827] | 100 | 56 | 55 | 96 | 90 | 13 | 87 | 67 | 67 | 100 | 97 | 100 | 83 | 100 | 100 | 94 | 14.8 | 19.9 |
